From patent US20120328696A1, “ANTI-PARKINSONIAN COMPOUND ACETYLSALICYLIC ACID MALTOL ESTER” (Hutecs Korea Pharmaceutical Co., Ltd., priority 2008, published 2012) come the findings set out here.

Common to all, as to assay type: in vivo
Test [1] concerns PKCδ. Put plainly: Striatal PKCδ-like immunoreactivity after MA (immunocytochemistry). To be noted: p.o.; AME 50, EBS 20, rottlerin 20 mg/kg; MA 8 mg/kg i.p. x4; GPx-1 (+/+) and (−/−) mice. As to the method:
(§1) The mice received four times of MA (8 mg/kg, ip) or saline as a 2 hr-time interval. Chemicals (AME, EBS, and PKC inhibitors) were administrated for 5 consecutive days (twice daily), and were given 2 times at 4 hr and 30 min before the first MA injection as shown in the experimental schedule. Animals were sacrificed at 4 hrs and 3 days after the final MA administration.
Animals were sacrificed at 4 hours and 3 days after the last MA injection. They were anesthetized with 60% urethane and perfused transcardially with 50 ml of 50 mM phosphate buffered saline (PBS), followed by 50 ml of a mixture of 4% paraformaldehyde in PBS. The rate of perfusion was 50 ml/min. The brains were removed, post-fixed at 4° C. for 24 h in the same fixative and then cryoprotected in 30% sucrose in PBS.
(§2) The immunocytochemistry was performed as described previously (Kim et al., 2000a, b). Briefly, prior to incubation with the primary antibodies, sections were preincubated with 0.3% hydrogen peroxide in PBS for 30 min (to block endogenous peroxidase activity), then in PBS containing 0.4% Triton X-100 for 20 min and 1% normal serum for 20 min. The sections were then incubated for 48 h at 4° C. in primary antibody against tyrosine hydroxylase (1:500, Chemicon, Termecula, Calif., USA), GPx1 (1:500, AbFrontier, Seoul, Korea), PKC (1:200, Santa Cruz biotechnology INC, CA, USA) or F4/80 (1:50, Serotec, Raleigh, N.C., USA). The sections were further incubated with secondary biotinylated antisera (1:1000 dilution; Vector, Brulingame, Calif.) for 1 hr, and immersed in avidin-biotin-peroxidase complex (ABC Elite kit, Vector) for 1 hr. Sections were always washed three times with PBS (pH 7.4) between each incubation step. 3,3′-diaminobenzidine (DAB) was used as a chromogen.

Test [2] deals with tyrosine hydroxylase. Put plainly: Striatal and nigral TH-like immunoreactivity after MA (immunocytochemistry). The following applies: p.o., AME 50, EBS 20, rottlerin 20 mg/kg, MA 8 mg/kg i.p. x4, GPx-1 (+/+) and (−/−) mice; for effect on MA-induced reduction in striatal TH-IR: striatum; for effect on MA-induced nigral reduction in TH-IR: substantia nigra pars compacta. As to the method:
as §1
Animals were sacrificed at 4 hours and 3 days after the last MA injection. They were anesthetized with 60% urethane and perfused transcardially with 50 ml of 50 mM phosphate buffered saline (PBS), followed by 50 ml of a mixture of 4% paraformaldehyde in PBS. The rate of perfusion was 50 ml/min. The brains were removed, post-fixed at 4° C. for 24 h in the same fixative and then cryoprotected in 30% sucrose in PBS. The brains were cut on a horizontal sliding microstome into 40 μm transverse free-floading sections (Kim et al., 1999).
as §2

Test [3] deals with p53. Kind of test: Striatal p53 expression after MA (western blot). The following applies: p.o.; AME 50, EBS 20, rottlerin 20 mg/kg; MA 8 mg/kg i.p. x4; GPx-1 (+/+) and (−/−) mice. As to the method: as §1
(§3) The western blot assays was performed as described previously (Kim et al., 2003). Tissues were homogenized in lysis buffer, containing 200 mM Tris HCl (pH 6.8), 1% SDS, 5 mM EGTA (ethylene glycol tetraacetic acid), 5 mM EDTA (ethylenediaminetetraacetic acid), 10% glycerol, 1× phosphatase inhibitor cocktail I, 1× protease inhibitor cocktail. Lysate was centrifuged at 12,000×g for 30 min and supernatant fraction was used for Western blot analysis. Proteins (20-50 ug/lane) were separated by 6%, 8%, 10% or 15% sodium dodecyl sulfate-polyacrylamide gel electrophoresis and transferred onto the PVDF membranes. Following transfer, the membranes were preincubated with 5% non-fat milk and incubated overnight at 4° C. with primary antibody against β-actin (1:50000, Sigma, St. Louis, Mo., USA), TH (1:5000, Chemicon), TH phosphor-Ser 19 (1:1000, Chemicon,), TH phosphor-Ser 31 (1:500, Chemicon), TH phosphor-Ser 40 (1:500, Chemicon), F4/80 (1:500, Serotec), GPx1 (1:2500, AbFrontier), PKC (1:5000, Santa Cruz biotechnology, Santa Cruz, Calif., USA), p53 (1:5000, Cell signaling, Beverly, Mass., USA), MDM2 (1:1000, BD Pharmingen, San Jose, Calif., USA), MDM2 phospho-Ser 166 (1:1000, cell signaling), BDNF (1:500, Chemicon), GDNF (1:250, Santa Cruz), COX-2 (1:2000, Cayman, Ann Arbor, MC, USA), IL-6 (1:2000, Abcam, Cambridge, Mass., USA), TNF-a (1:1000, R&D Systems, Mckinley place NE, NM, USA), IFN-γ (1:500, Chemicon) or Iba-1 (1:500, Wako, Osaka, Japan). And then, membranes were incubated with HRP-conjugated secondary anti-rabbit IgG (1:1000, GE healthcare, Piscataway, N.J., USA), anti-mouse IgG (1:1000, Sigma) or anti-goat IgG (1:1000, Sigma) for 2 h. […]
On the technique in general: A western blot detects proteins with antibodies after separation by electrophoresis.

In test [4] the test system is phospho MDM2-ser 166. Put plainly: Striatal phospho-MDM2 expression after MA (western blot). To be noted: p.o.; AME 50, EBS 20, rottlerin 20 mg/kg; MA 8 mg/kg i.p. x4; GPx-1 (+/+) and (−/−) mice. The protocol: as §1, §3
Test [5] concerns F4/80 (a marker of microgliosis). Kind of test: F4/80 expression after MA (western blot). To be noted: p.o.; AME 50, EBS 20, rottlerin 20 mg/kg; MA 8 mg/kg i.p. x4; GPx-1 (+/+) and (−/−) mice. As to the method:
as §1, §3

Test [6] concerns Iba-1 (a marker of microgliosis). Kind of test: Iba-1 expression after MA (western blot). To be noted: p.o.; AME 50, EBS 20, rottlerin 20 mg/kg; MA 8 mg/kg i.p. x4; GPx-1 (+/+) and (−/−) mice. The protocol:
as §1, §3

Test [7] deals with brain-derived neurotrophic factor (BDNF). Put plainly: Striatal BDNF expression after MA (western blot). To be noted: p.o.; AME 50, EBS 20, rottlerin 20 mg/kg; MA 8 mg/kg i.p. x4; GPx-1 (+/+) and (−/−) mice. As to the method: as §1, §3
The test system of test [8] is protein carbonyl. Put plainly: Striatal protein oxidation (protein carbonyl) after MA. To be noted: biochemical assay and slot blot; striatum, 3 days after final MA; p.o.; AME 50, EBS 20, rottlerin 20 mg/kg; GPx-1 (+/+) and (−/−) mice. As to the method: as §1
The amount of oxidized proteins was measured using the Oxyblot kit (Chemicon International, CA) according to the instruction provided by manufacturer. Briefly, the protein carbonyl content was measured by first forming labeled protein hydrazone derivatives using 2,4-dinitrophenylhydrazide (DNP). The DNP-derivatized protein samples were transferred onto PVDF membrane by slot blot apparatus (GE Healthcare). Blots were then incubated with primary antibody specific to the DNP moiety, followed by incubation with a HRP-conjugated secondary antibody. Subsequent visualization was performed using enhanced chemiluminescence system (ECL Plus®, GE healthcare) (Gemma et al., 2004).
The extent of protein carbonyl oxidation in the striatum was assessed by measuring the content of protein carbonyl groups, which was determined spectrophotometrically with the 2,4-dinitrophenyl-hydrazine (DNPH)-labeling procedure (Kim et al., 1997b, 2000b, 2002) as described by Oliver et al. (1987). The results were expressed as nmol of DNPH incorporated/mg protein based on the extinction coefficient for aliphatic hydrazones of 21 mM^−1 cm^−1. Protein was measured using the BCA protein assay reagent (Pierce, Rockford, Ill., USA).

Each structure is given as a SMILES string.

As for `CC(=O)Oc1ccccc1C(=O)Oc1c(C)occc1=O` [AME, 3-(2-methyl-4-pyronyl)-2-acetyloxybenzoate], the “effect on MA-induced increase in striatal PKCδ-IR” value in test [1] is “significantly attenuated MA-induced increase in striatal PKCδ-IR”. For the same compound, in test [2], the “effect on MA-induced reduction in striatal TH-IR” value is listed as “attenuated this reduction in striatal TH-IR” and the “effect on MA-induced nigral reduction in TH-IR” value is recorded as “significantly attenuated MA-induced nigral reduction in TH-IR”. Moreover, in test [3], the “effect on MA-induced increase in striatal p53 expression” value is given as “significantly inhibited MA-induced increase in p53 expression”. For the same compound, the “effect on MA-induced decrease in phospho-MDM2 expression” value (“effect on MA-induced decrease” for short) in test [4] is “significantly attenuated”. Moreover, the “effect on MA-induced increase in F4/80 expression” value in test [5] is “significantly and consistently attenuating effects”. The “effect on MA-induced increase in Iba-1 expression” value in test [6] is “significantly and consistently attenuating effects”. Moreover, in test [7], the “effect on MA-induced reduction in BDNF expression” value is “significantly attenuated these reductions”. Moreover, in test [8], the “effect on MA-induced increase in protein oxidation” value is given as “significantly attenuated”.
Regarding `O=c1c2ccccc2[se]n1-c1ccccc1` [EBS, 2-phenyl-1,2-benzisoselenazol-3(2H)-one], the “effect on MA-induced increase in striatal PKCδ-IR” value in test [1] was “significantly attenuated MA-induced increase in striatal PKCδ-IR”. In test [2], the “effect on MA-induced reduction in striatal TH-IR” value was “attenuated this reduction in striatal TH-IR” and the “effect on MA-induced nigral reduction in TH-IR” value was “significantly attenuated MA-induced nigral reduction in TH-IR”. For the same compound, the “effect on MA-induced increase in striatal p53 expression” value in test [3] is listed as “significantly inhibited MA-induced increase in p53 expression”. In test [4], the “effect on MA-induced decrease” value was “significantly attenuated”. Also, the “effect on MA-induced increase in F4/80 expression” value in test [5] is “significantly and consistently attenuating effects”. In addition, in test [6], the “effect on MA-induced increase in Iba-1 expression” value was “significantly and consistently attenuating effects”. For the same compound, the “effect on MA-induced reduction in BDNF expression” value in test [7] is “significantly attenuated these reductions”. The “effect on MA-induced increase in protein oxidation” value in test [8] is reported as “significantly attenuated”.
On to `CC(=O)c1c(O)c(C)c(O)c(Cc2c(O)c3c(c(C(=O)/C=C/c4ccccc4)c2O)OC(C)(C)C=C3)c1O` [rottlerin], for which the “effect on MA-induced increase in striatal PKCδ-IR” value in test [1] is “significantly attenuated MA-induced increase in striatal PKCδ-IR”. Also, in test [2], the “effect on MA-induced reduction in striatal TH-IR” value is on record as “attenuated this reduction in striatal TH-IR” and the “effect on MA-induced nigral reduction in TH-IR” value is “significantly attenuated MA-induced nigral reduction in TH-IR”. Further, the “effect on MA-induced increase in striatal p53 expression” value in test [3] is reported as “significantly inhibited MA-induced increase in p53 expression”. For the same compound, the “effect on MA-induced decrease” value in test [4] was “significantly attenuated”. Besides, in test [5], the “effect on MA-induced increase in F4/80 expression” value is “significantly and consistently attenuating effects”. Moreover, the “effect on MA-induced increase in Iba-1 expression” value in test [6] is “significantly and consistently attenuating effects”. For the same compound, the “effect on MA-induced reduction in BDNF expression” value in test [7] is recorded as “significantly attenuated these reductions”. Also, in test [8], the “effect on MA-induced increase in protein oxidation” value is “significantly attenuated”.
